From patent EP3981864A1, “DETERGENT COMPOSITION” (priority 2020, dated 2022)

Legend:
Test in all cases: Alpha-dioxygenase activity assay (oxygen consumption, TON)
Type in all cases: biochemical
Conditions in all cases: fatty acid 100 µM, enzyme 6 ppm, 50 mM HEPES pH 9.0, 37°C; initial rate of oxygen consumption / enzyme concentration
[1] = tested on: Solanum lycopersicum αDOX (SEQ ID NO: 8), fatty acid alpha-dioxygenase, Q5WM33, N-terminal His-tag variant SEQ ID NO: 263 (comparative)
From the text: (§1) Solanum lycopersicum αDOX (SEQ ID NO: 8) is a fatty acid alpha-dioxygenase that converts fatty acids into the corresponding 2-hydroperoxy fatty acids and is included as a comparative example of the present invention. A codon optimized gene (SEQ ID NO: 262) encoding for an alpha-dioxygenase variant (SEQ ID NO: 263), including an N-terminal amino acid sequence containing a His-tag was designed and synthesized by Genscript. After gene synthesis, the protein was expressed and purified. In brief, the complete synthetic gene sequence was subcloned into a pET30a vector using the NdeI/HindIII cloning sites. For heterologous expression, Escherichia coli BL21 (DE3) cells were transformed with the recombinant plasmid and a single colony was inoculated into LB medium containing kanamycin (50 mg/L). A pre-starter culture was then inoculated into flasks containing Magic Media (Thermo Fisher, Catalog # K6803) supplemented with kanamycin (50 mg/L) and incubated at 16 °C for 72 h. At an OD600nm = 0.5 - 1.0, 5-aminolevulinic acid (final concentration 0.5 mM) was added. Cells were harvested by centrifugation at 5000 rpm and 4°C and the pellet was lysed using a bacterial cell lysis buffer (B-PER - Themo Fisher, Waltham, MA). After centrifugation, the supernatant was collected, and the protein was purified by one-step purification using HisPur™ Ni-NTA Spin Columns (Thermo Scientific, Catalog # 88226) and standard protocols known in the art. The protein was concentrated using a 10 kDa MW cutoff Amicon Ultra centrifugal filter unit (Millipore Sigma, Catalog# UFC901024), followed by desalting using a disposable PD-10 desalting column (GE Healthcare Life Sciences, Catalog# 17085101) and a buffer containing 50 mM Tris-HCl, 500 mM NaCl, and 10% Glycerol at pH 8.0. […]
(§2) Reactions with alpha-dioxygenases were performed as follows. […] The reaction was incubated for up to 10 minutes at 37°C with 200 rpm agitation and the conversion was monitored using an oxygen sensor. The TON (in s-1) were calculated as the ratio between the initial rate of oxygen consumption (in µM/s) and the concentration of enzyme (in µM). […]

[2] = tested on: Citrus sinensis αDOX (SEQ ID NO: 11), fatty acid alpha-dioxygenase, A0A067FHE4, N-terminal His-tag variant SEQ ID NO: 269 (comparative)
From the text: as §1, with “Citrus sinensis” for “Solanum lycopersicum”, “11)” for “8)”, “268)” for “262)”, “269),” for “263),”
as §2

[3] = tested on: Mycolicibacterium fortuitum αDOX (SEQ ID NO: 14), fatty acid alpha-dioxygenase, K0VM18, N-terminal His-tag variant SEQ ID NO: 275 (comparative)
From the text: as §1, with “Mycolicibacterium fortuitum” for “Solanum lycopersicum”, “14)” for “8)”, “274)” for “262)”, “275),” for “263),”, “art.” for “art. The protein was concentrated using a 10 kDa MW cutoff Amicon Ultra centrifugal filter unit (Millipore Sigma, Catalog# UFC901024), followed by desalting using a disposable PD-10 desalting column (GE Healthcare Life Sciences, Catalog# 17085101) and a buffer containing 50 mM Tris-HCl, 500 mM NaCl, and 10% Glycerol at pH 8.0.”
as §2

CCCCCCCC/C=C\CCCCCCCC(=O)O [Oleic Acid]
Oleic Acid, TON [1]: 0.00 s⁻¹ | Oleic Acid, TON [2]: 0.00 s⁻¹ | Oleic Acid, TON [3]: 0.00 s⁻¹

CCCCCCCCCCCCCCCC(=O)O [Palmitic Acid]
Palmitic Acid, TON [1]: 0.00 s⁻¹ | Palmitic Acid, TON [2]: 0.29 s⁻¹ | Palmitic Acid, TON [3]: 0.21 s⁻¹

CCCCCCCCCCCCCCCCCC(=O)O [Stearic Acid]
Stearic Acid, TON [1]: 0.12 s⁻¹ | Stearic Acid, TON [2]: 0.00 s⁻¹ | Stearic Acid, TON [3]: 0.03 s⁻¹
